Source: PubChem BioAssay AID179 (DTP/NCI, 2004)
Activity calls are given as the source filed them.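 The calls were made as follows: active = compounds giving half or more protection of infected cells from virus-caused growth loss, again on retest; inactive = the rest.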

Tested on: CEM cells HIV-1 protection, formazan growth assay
Experiment: NCI AIDS Antiviral Assay
Settings: for IC50: measured here: growth of uninfected CEM cells
Summary of the method: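 Human CEM cells, uninfected and HIV-1-infected, exposed to five drug concentrations; growth measured by soluble formazan assay and scored as percent protection from infection, with protecting compounds retested.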

Row | Compound | outcome | EC50 [µM] | IC50 [µM]
1 | COC(c1cccc(C(O)(C(F)(F)F)C(F)(F)F)c1)(C(F)(F)F)C(F)(F)F | inactive | – | –
2 | O=C(/C(=C(/Br)I)c1ccccc1)c1ccccc1 | – | > 200 | 27.5
3 | COc1cccc(N2C(=O)[C@H]3CC(C)c4c([nH]c5ccccc45)[C@H]3C2=O)c1 (stereo partly drawn) | – | > 35.5 | > 35.5
4 | COC(=O)C1(C(=O)OC)C2=Nc3ccccc3[C@@]23CCN(Cc2ccccc2)C3C[C@H]1c1ccoc1 (stereo partly drawn) | – | > 36.3 | 21.4
5 | Oc1ccc(Cl)cc1C1=NC(/N=C\c2ccccc2)=NC(c2ccccc2)C1 (stereo not drawn) | – | > 200 | 8.91
6 | CCSC(CCCC1OCC2OC(n3cc(C)c(=O)[nH]c3=O)CC2N1O)SCC (stereo not drawn) | – | > 200 | 135
7 | COc1c(OC2OC(CO)C(O)C(O)C2O)cc2c(c1OC)-c1ccc(OC)c(=O)cc1[C@@H](NC(C)=O)CC2 (stereo partly drawn) | inactive | – | –
8 | N#CC(C(=O)/C(=N/N)C(C#N)c1ccccc1)c1ccccc1 (stereo not drawn) | – | > 309 | > 309
9 | CC(=O)Nc1ccc(C(=O)OCC2OC(n3cc(C)c(=O)[nH]c3=O)CC2N=[N+]=[N-])cc1 (stereo not drawn) | – | 0.148 | 38.9
10 | C#CCN(Cc1ccc2nc(-c3ccccc3)c(Cl)nc2c1)c1ccc(F)cc1 | – | > 200 | 27.5
11 | Clc1cccc(C=NC23CC4CC(CC(C4)C2)C3)c1Cl | – | > 200 | 13.2
12 | CC(C)c1cccc(C(C)C)c1O | – | > 200 | > 200
13 | CCOC(=O)C1=C(C(=O)OCC)C2c3ccccc3C=CN2C(C(=O)OCC)=C(SC)S1 (stereo not drawn) | – | > 7.94 | > 7.94
14 | COc1ccc2c(c1)c1cc(OC)ccc1n2CCCCOc1ccc(-c2c3ccccc3c(-c3ccc(OCCCCn4c5ccc(OC)cc5c5cc(OC)ccc54)cc3)c3ccccc23)cc1 | – | > 1.55 | > 1.55
15 | COCS(=O)(=O)c1ccccc1 | – | > 708 | > 708
16 | N#CCN(Cc1ccccc1)[C@@H]1CCC[C@]1(O)C#Cc1ccc2c(c1)OCO2 | – | > 200 | 20.4
17 | CCOP(=O)(OCC)C(Nc1cccc(F)c1)c1ccc(N(C)C)cc1 (stereo not drawn) | – | > 200 | 97.7
18 | COc1ccc(/C=C(\NC(=O)c2ccccc2)C(=O)NN(C)c2ccnc3cc(Cl)ccc23)cc1OC | – | > 200 | 56.2
19 | CCN=C(C#N)NCC | – | > 708 | 257
20 | CCCCCCCCCCCOc1ccc(C(=O)C(=O)c2ccc(OCCCCCCCCCCC)c(OCCCCCCCCCCC)c2)cc1OCCCCCCCCCCC | – | > 10.5 | > 10.5
21 | CCc1ccccc1NC(=O)/C(N=O)=C(/C)O | – | > 151 | > 151

Row | Compound | outcome | EC50 [µM] | IC50 [µM]
22 | COc1cc2c(cc1O)CC[C@@H]1C2CC[C@@]2(C)C1CC[C@@H]2O (stereo partly drawn) | – | > 2 | 0.331
23 | CCC[CH2][Ge]([CH2]CCC)([CH2]CCC)[O]C(=O)C(O)c1ccccc1 (stereo not drawn) | – | 4.9 | 12
24 | COCCOCCOCCOc1cccc2c1C(=O)c1c(OCCOCCOCCOC)cccc1C2=O | inactive | – | –
25 | Cc1cccc(NC(=O)CSc2nnc(Cc3ccccc3)o2)c1 | – | > 537 | > 537
26 | Cc1cccc2nc3nc(Cl)c(Cl)nc3n12 | – | > 200 | 129
27 | N#C/C(=C/N1C(=O)CC(=O)NC1=S)c1cccc(Cl)c1 | – | 182 | > 200
28 | N.N.N.N.O=C([O-])CCl.O=C([O-])CCl.[Co+3].[O-][Cl+3]([O-])([O-])[O-] | inactive | – | –
29 | CC1(C)CCC[C@@]2(C)C1CCC1(C)C(CCc3ccoc3)/C(=C/OS(=O)(=O)O)CCC12 (stereo partly drawn) (tested in a mixture with another compound) | – | > 145 | > 145
30 | N#CC1=C(C#N)SCCCS1 | – | > 14.8 | > 14.8
31 | CCN(CC)CCOc1ccc(C(C#N)=C(c2ccccc2)c2ccccc2)cc1 | – | > 200 | 2.57
32 | Cc1nc2ccc(C(F)(F)F)cc2nc1Nc1ccc(Cl)c(Cl)c1 | – | > 17.8 | 11.5
33 | O=C(Nc1ccc(Cl)cc1)c1cc(S(=O)(=O)Nc2nc3ncccc3[nH]2)c(SSc2cc(Cl)c(C(=O)Nc3ccc(Cl)cc3)cc2S(=O)(=O)Nc2nc3ncccc3[nH]2)cc1Cl | – | > 200 | > 200
34 | CC1C(=O)CC2OC3CC(C)(Cl)C(Br)CC31C2(C)C (stereo not drawn) | inactive | – | –
35 | O=S(=O)(OC(=C(c1ccccc1)c1ccccc1)c1ccccc1)C(F)(F)F | – | > 17.8 | > 17.8
36 | Nc1nc(N)nc(Nc2ccc([As](=O)(O)O)cc2)n1 | – | > 21.9 | > 21.9
37 | CCC1(CC)COP(=S)([S][Sb]([O]C(C)=O)[S]P2(=S)OCC(CC)(CC)CO2)OC1 | – | > 57.5 | 9.33
38 | O=C1NC(Cc2ccc(Cl)cc2)C(=O)N2CCCC12 (stereo not drawn) | – | > 200 | 95.5
39 | COc1cc2c(cc1OC)C(C1CC1)ON(C)CC2 (stereo not drawn) | – | 158 | > 200
40 | N#Cc1cnc(N)nc1NCC1(CO)CC(CCc2ccccc2)C1 (stereo not drawn) | – | > 200 | 7.24
41 | C[C@]12CCC[C@H](OC=O)C1(O)C[C@H](C(=O)O)CC2 (stereo partly drawn) | inactive | – | –
42 | O=C1C(O)=C(c2ccc(Br)cc2)C(=O)C(O)=C1c1ccc(Br)cc1 | – | > 58.9 | 22.4

Row | Compound | outcome | EC50 [µM] | IC50 [µM]
43 | CC(=O)OCC1OC(n2c(-c3ccccc3)c(N=Nc3ccc(C)cc3)c(C)c(C#N)c2=S)C(OC(C)=O)C(OC(C)=O)C1OC(C)=O (stereo not drawn) | – | 195 | > 200
44 | NC(=O)C1C[C@@H](O)CN1C(=O)c1ccc2c(c1)OCO2 (stereo partly drawn) | – | > 200 | > 200
45 | N#C/C=C/c1cccc(C#N)c1 | – | > 46.8 | > 46.8
46 | O=S(=O)(O)c1cccc2c(N=Nc3ccc(N=Nc4ccc(Nc5ccccc5)c5c(S(=O)(=O)O)cccc45)c4ccccc34)cccc12 | – | > 50.1 | 34.7
47 | CC1(C)S(=O)(=O)OCCOS1(=O)=O | – | > 200 | 110
48 | COC1C(=O)CCC2(CO2)C1(O)C1(C)OC1CC=C(C)C (stereo not drawn) | – | > 200 | 2.88
49 | S=c1n(-c2ccc(Cl)cc2)c2nc3ccccc3nc(/c2=N\Nc2cc(Cl)ccc2Cl)n1-c1ccc(Br)cc1 | – | > 75.9 | 19.5
50 | NC(=S)N/N=C(/CC(=O)c1ccc([N+](=O)[O-])cc1)C(=O)Nc1ncc([N+](=O)[O-])s1 | – | > 83.2 | 81.3
51 | Nc1nc2c(ncn2CC2COC(CO)O2)c(=O)[nH]1 (stereo not drawn) | – | > 468 | > 468
52 | O=C1OC(c2ccccc2)(c2ccccc2)c2sccc21 | – | > 24.5 | > 24.5
53 | CN(C)C(=O)Sc1nnc(C(C)(C)C)o1 | – | > 200 | > 100
54 | O=[N+]([O-])c1ccc2cnn(CCO)c2c1 | – | > 200 | > 200
55 | COc1cc(NS(=O)(=O)c2ccc(NC(=O)c3ccccc3SC(=O)CCCC[n+]3ccccc3)cc2)nc(OC)n1 | – | 26.9 | 60.3
56 | O=c1nc(Oc2ccccc2)nc2cnccn12 | – | > 372 | 145
57 | O=C(NNC(=O)c1ccncc1)c1ccncc1 | – | > 200 | > 200
58 | C=C1C[C@@H]2C[C@@H](C)CC(O)[C@]2(CCCNC(=O)CCOCc2ccccc2)C1O (stereo partly drawn) | inactive | – | –
59 | CN(/N=C/c1ccnc2ccccc12)c1ccc(Cl)cc1[N+](=O)[O-] | – | > 100 | 12.3
60 | O=C(c1ccccc1)n1c2ccc(Br)cc2c2nc3ccccc3nc21 | – | > 50.1 | > 50.1
61 | N#CC(C(=S)Nc1ccccc1)=C1Nc2ccccc2N1 | – | > 200 | > 200
62 | Nc1ccc(/C=C/c2cccc3cccnc23)cc1 | – | 0.0631 | > 200
63 | COc1cc(N=Nc2ccccc2C(=O)[O-])cc(/C=N/NC(=S)Nc2ccc(C)cc2)c1[O-].[Cu+].[Cu+] | inactive | – | –

Row | Compound | outcome | EC50 [µM] | IC50 [µM]
64 | O=[N+]([O-])/C(C(Cl)=C(Cl)Cl)=C(/Br)SCc1ccccc1 | – | > 20 | 0.575
65 | Cc1ccc(/C=C2/N=C(N/N=C\c3ccccc3)NC2=O)cc1 | – | > 200 | 129
66 | COc1ccc(CC(COS(=O)(=O)c2ccc(C)cc2)NS(=O)(=O)c2ccc(C)cc2)cc1 (stereo not drawn) | – | > 200 | 26.9
67 | CSc1cnn(CCC#N)c(=O)n1 | – | > 200 | 36.3
68 | C/C1=C2\CC(OC3OCC(O)C(O)C3O)C(C)C2C/C=C(/C=O)[C@H]2C[C@@]3(C)CCC(C(C)C)C3CC12 (stereo partly drawn) | – | > 93.3 | > 93.3
69 | Nc1[nH]c(=S)c2c(N)n[nH]c2c1C(=O)Nc1ccccc1 | – | > 200 | 91.2
70 | COc1ccccc1N1C(=O)/C(=C\c2cc(OC)c(OC)c(OC)c2)S(=O)(=O)C1c1ccccc1 (stereo not drawn) | – | > 200 | 38
71 | Cc1cccc(C)c1NC(=O)C(=O)Nn1c(NN)nc2ccccc2c1=O | – | > 676 | 525
72 | CCN(CC)CCN.[O-][Cl+3]([O-])([O-])[O-].[Pd+2].c1ccc(-c2ccccn2)nc1 | – | > 200 | 32.4
73 | O=C(CO)CC(=O)C(=O)Nc1ccccc1 | – | > 151 | > 151
74 | CCN(CC)c1c(C)nnn1C1OC(COC(C)=O)C(OC(C)=O)C(OC(C)=O)C1OC(C)=O (stereo not drawn) | – | > 141 | > 141
75 | COC(=O)C1C2c3ccccc3-c3ccccc3C2(OC(C)=O)[C@@]1(Cl)C(=O)OC (stereo partly drawn) | – | > 43.7 | 6.61
76 | O=c1c2ccc(Cl)cc2oc2c(CSc3ccccc3)cccc12 | – | > 200 | 9.77
77 | BrC(=C(c1ccc(OC2CCCCO2)cc1)c1ccc(OC2CCCCO2)cc1)c1ccccc1 (stereo not drawn) | – | 70.8 | > 200
78 | COc1ccc(N2C(=O)C3c4[nH]c5ccccc5c4C4CCC(C(C)C)CC4C3C2=O)cc1 (stereo not drawn) | – | > 100 | 93.3
79 | CC1(C)C(=NO)C(C)(C)C1=NO | inactive | – | –
80 | O=Cc1ccc(C(F)(F)F)cc1.[C-]#[O+].[C-]#[O+].[C-]#[O+].[Cr] | – | > 20 | 3.98
81 | COc1ccc(-c2cc(=O)cc(C(N)=O)o2)cc1 | – | > 200 | > 200
82 | O=C1NC(=O)C23CCCCc4cccc(c42)C(=O)C13 (stereo not drawn) | – | > 372 | > 372
83 | CC1(C)CC(=O)c2c(nc3c(ccc4ccccc43)c2-c2ccc(NC(=O)CCCCC(=O)Nc3ccc(-c4c5c(nc6c4ccc4ccccc46)CC(C)(C)CC5=O)cc3)cc2)C1 | – | > 100 | 20
84 | O=C(O)c1cc(=O)[nH]c(=O)[nH]1 | inactive | – | –
